Test results reported in the NIST ThermoML archive (doi:10.1016/j.fluid.2008.08.012).
Numbers after ± are expanded uncertainties.

Tests used:
[1] = refractive index (Na D-line) (dimensionless); conditions: 298.15 K; 101.33 kPa; Liquid; Standard Abbe refractometry
[2] = for mass density: 298.15 K, 101.33 kPa; for mass density / vapor or sublimation pressure: Liquid; for vapor or sublimation pressure: Ebulliometric method (Recirculating still); for surface tension liquid-gas: 303.15 K, Maximal bubble pressure
[3] = xn = mol fraction of the nth substance listed; conditions: 303.15 K, Maximal bubble pressure

COC(C)(C)C [2-methoxy-2-methylpropane]
Conditions	mass density [kg/m3]	refractive index	surface tension liquid-gas [mN/m]
[1]	–	1.36766 ± 0.00031	–
[2]	735.45 ± 0.27	–	18.7 ± 0.25

[2]
Conditions	vapor or sublimation pressure [kPa]
301.31 K	38.06 ± 0.09
303.21 K	41.03 ± 0.09
305.59 K	45.05 ± 0.09
308.33 K	50.06 ± 0.1
310.85 K	55.05 ± 0.1
313.2 K	60.06 ± 0.11
315.39 K	65.03 ± 0.11
317.47 K	70.07 ± 0.12
319.41 K	75.05 ± 0.12
321.27 K	80.08 ± 0.13
323.02 K	85.05 ± 0.13
324.7 K	90.06 ± 0.14
325.98 K	94 ± 0.14
326.31 K	95.05 ± 0.14
328.24 K	101.34 ± 0.14

COC(C)(C)C [2-methoxy-2-methylpropane] + C1CCCCC1
[3]
Conditions	surface tension liquid-gas [mN/m]
x1 = 0.046	23.39 ± 0.24
x1 = 0.1	22.97 ± 0.24
x1 = 0.205	22.23 ± 0.23
x1 = 0.308	21.57 ± 0.23
x1 = 0.409	21.03 ± 0.23
x1 = 0.51	20.58 ± 0.22
x1 = 0.614	20.12 ± 0.22
x1 = 0.716	19.71 ± 0.22
x1 = 0.816	19.34 ± 0.22
x1 = 0.901	19.05 ± 0.21
x1 = 0.947	18.89 ± 0.21

COC(C)(C)C [2-methoxy-2-methylpropane] + CC(C)=O
[3]
Conditions	surface tension liquid-gas [mN/m]
x1 = 0.031	22.14 ± 0.23
x1 = 0.074	21.76 ± 0.23
x1 = 0.171	21.13 ± 0.23
x1 = 0.272	20.59 ± 0.22
x1 = 0.378	20.09 ± 0.22
x1 = 0.484	19.75 ± 0.22
x1 = 0.585	19.47 ± 0.22
x1 = 0.681	19.22 ± 0.22
x1 = 0.784	18.98 ± 0.21
x1 = 0.884	18.74 ± 0.21
x1 = 0.94	18.55 ± 0.21

CC(C)=O [acetone]
Conditions	mass density [kg/m3]	refractive index	surface tension liquid-gas [mN/m]
[1]	–	1.35732 ± 0.00031	–
[2]	784.23 ± 0.24	–	22.45 ± 0.26

Conditions	vapor or sublimation pressure [kPa]
[2], 327.16 K	94 ± 0.2

C1CCCCC1 [cyclohexane]
Conditions	mass density [kg/m3]	refractive index	surface tension liquid-gas [mN/m]
[1]	–	1.42508 ± 0.00031	–
[2]	773.84 ± 0.24	–	24.1 ± 0.26

Conditions	vapor or sublimation pressure [kPa]
[2], 351.37 K	94 ± 0.2
